Measurements from US9073853B2, “Cycloalkane carboxylic acid derivatives as CXCR3 receptor antagonists” (Sanofi, priority 2011, dated 2015).

target: human CXCR3-A receptor (Homo sapiens (Human), UniProt P49682); assay: 125I-CXCL10 competition radioligand binding assay; conditions: displacement of 125I-CXCL10 from membranes of CHO cells expressing human recombinant CXCR3-A
In short: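 Membranes from a recombinant cell line expressing human CXCR3-A (10-20 μg protein) were incubated with 125I-CXCL10 and test compound for 60 min at 25° C, then filtered onto PEI-soaked GF/B filters and gamma-counted. IC50 and Hill slope came from four-parameter nonlinear fitting of competition curves.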

Chain of human CXCR3-A receptor (P49682 whole entry): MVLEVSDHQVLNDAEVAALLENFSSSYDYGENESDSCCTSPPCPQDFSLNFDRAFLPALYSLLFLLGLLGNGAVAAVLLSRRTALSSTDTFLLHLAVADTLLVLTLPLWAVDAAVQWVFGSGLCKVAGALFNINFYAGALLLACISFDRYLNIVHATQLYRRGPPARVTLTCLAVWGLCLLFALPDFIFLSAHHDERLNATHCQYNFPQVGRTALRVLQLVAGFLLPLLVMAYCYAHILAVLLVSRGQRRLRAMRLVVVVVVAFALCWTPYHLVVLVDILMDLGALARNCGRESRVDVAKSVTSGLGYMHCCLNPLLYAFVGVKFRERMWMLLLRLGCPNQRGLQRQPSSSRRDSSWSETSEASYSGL

SMILES	IC50 [nM]
COc1cc(CN(C[C@@H]2CC[C@@H](C(=O)O)C2)[C@@H](C)c2ccc(Cl)cc2)ccc1OCCN1C(=O)CCC1=O [Example 99, (1R,3R)-3-[([(S)-1-(4-Chloro-phenyl)-ethyl]-{4-[2-(2,5-dioxo-pyrrolidin-1-yl)-ethoxy]-3-methoxy-benzyl}-amino)-methyl]-cyclopentanecarboxylic acid]	223
COc1cc(CN(C[C@H]2CC[C@H](C(=O)O)C2)[C@@H](C)c2ccc(Cl)cc2)ccc1OCCN1C(=O)CCC1=O [Example 100, (1S,3S)-3-[([(S)-1-(4-Chloro-phenyl)-ethyl]-{4-[2-(2,5-dioxo-pyrrolidin-1-yl)-ethoxy]-3-methoxy-benzyl}-amino)-methyl]-cyclopentanecarboxylic acid]	108
COc1cc(CN(C[C@H]2CC[C@@H](C(=O)O)C2)[C@@H](C)c2ccc(Cl)cc2)ccc1OCCN1C(=O)CCC1=O [Example 101, (1R,3S)-3-[([(S)-1-(4-Chloro-phenyl)-ethyl]-{4-[2-(2,5-dioxo-pyrrolidin-1-yl)-ethoxy]-3-methoxy-benzyl}-amino)-methyl]-cyclopentanecarboxylic acid]	1810
CCOC(=O)[C@@H]1C[C@H]1CN(Cc1ccc(OCCN2C(=O)CCC2=O)c(OC)c1)C(C)c1ccc2c(c1)CCO2 (stereo partly drawn) [Example 111, (1R,2R)-2-[([1-(2,3-Dihydro-benzofuran-5-yl)-ethyl]-{4-[2-(2,5-dioxo-pyrrolidin-1-yl)-ethoxy]-3-methoxy-benzyl}-amino)-methyl]-cyclopropanecarboxylic acid ethyl ester]	646
COc1cc(CN(C[C@@H]2C[C@H]2C(=O)O)C(C)c2ccc3c(c2)CCO3)ccc1OCCN1C(=O)CCC1=O (stereo partly drawn) [Example 112, (1R,2R)-2-[([1-(2,3-Dihydro-benzofuran-5-yl)-ethyl]-{4-[2-(2,5-dioxo-pyrrolidin-1-yl)-ethoxy]-3-methoxy-benzyl}-amino)-methyl]-cyclopropanecarboxylic acid]	145
CCOC(=O)[C@H]1C[C@H]1CN(Cc1ccc(OCCN2C(=O)CCC2=O)c(OC)c1)C(C)c1ccc2c(c1)CCO2 (stereo partly drawn) [Example 113, (1S,2R)-2-[([1-(2,3-Dihydro-benzofuran-5-yl)-ethyl]-{4-[2-(2,5-dioxo-pyrrolidin-1-yl)-ethoxy]-3-methoxy-benzyl}-amino)-methyl]-cyclopropanecarboxylic acid ethyl ester]	82
COc1cc(CN(C[C@@H]2C[C@@H]2C(=O)O)C(C)c2ccc3c(c2)CCO3)ccc1OCCN1C(=O)CCC1=O (stereo partly drawn) [Example 114, (1S,2R)-2-[([1-(2,3-Dihydro-benzofuran-5-yl)-ethyl]-{4-[2-(2,5-dioxo-pyrrolidin-1-yl)-ethoxy]-3-methoxy-benzyl}-amino)-methyl]-cyclopropanecarboxylic acid]	180
CCC(c1ccc(Cl)cc1)N(Cc1ccc(OCCN2C(=O)CN(C)C2=O)c(C)c1)C[C@@H]1[C@@H](C(=O)O)C1(C)C (stereo partly drawn) [Example 115, (1R,3R)-3-[([1-(4-Chloro-phenyl)-propyl]-{3-methyl-4-[2-(3-methyl-2,5-dioxo-imidazolidin-1-yl)-ethoxy]-benzyl}-amino)-methyl]-2,2-dimethyl-cyclopropanecarboxylic acid]	244
CCC(c1ccc(Cl)cc1)N(Cc1ccc(OCCN2C(=O)CN(C)C2=O)c(OC)c1)C[C@H]1[C@H](C(=O)O)C1(C)C (stereo partly drawn) [Example 116, (1S,3S)-3-[([1-(4-Chloro-phenyl)-propyl]-{3-methoxy-4-[2-(3-methyl-2,5-dioxo-imidazolidin-1-yl)-ethoxy]-benzyl}-amino)-methyl]-2,2-dimethyl-cyclopropanecarboxylic acid]	160
CCC(c1ccc(Cl)cc1)N(Cc1ccc(OCCN2C(=O)CCC2=O)c(OC)c1)C[C@H]1[C@H](C(=O)O)C1(C)C (stereo partly drawn) [Example 117, (1S,3S)-3-[([1-(4-Chloro-phenyl)-propyl]-{4-[2-(2,5-dioxo-pyrrolidin-1-yl)-ethoxy]-3-methoxy-benzyl}-amino)-methyl]-2,2-dimethyl-cyclopropanecarboxylic acid]	71
CCC(c1ccc(Cl)cc1)N(Cc1ccc(OCCN2C(=O)CCC2=O)c(C)c1)C[C@@H]1[C@@H](C(=O)O)C1(C)C (stereo partly drawn) [Example 118, (1R,3R)-3-[([1-(4-Chloro-phenyl)-propyl]-{4-[2-(2,5-dioxo-pyrrolidin-1-yl)-ethoxy]-3-methyl-benzyl}-amino)-methyl]-2,2-dimethyl-cyclopropanecarboxylic acid]	190

Second part, the compound after the results:

IC50 [nM]	SMILES
4040	CCc1cc(CN(C[C@H]2CC[C@H](C(=O)O)CC2)C2CCc3cc(F)c(Cl)cc32)ccc1OCCN1C(=O)CCC1=O (stereo partly drawn) [Example 95, trans-4-[((6-Chloro-5-fluoro-indan-1-yl)-{4-[2-(2,5-dioxo-pyrrolidin-1-yl)-ethoxy]-3-ethyl-benzyl}-amino)-methyl]-cyclohexanecarboxylic acid]
443	CCc1cc(CN(C[C@H]2CC[C@H](C(=O)O)CC2)C2CCc3c2ccc(F)c3Cl)ccc1OCCN1C(=O)CCC1=O (stereo partly drawn) [Example 96, trans-4-[((4-Chloro-5-fluoro-indan-1-yl)-{4-[2-(2,5-dioxo-pyrrolidin-1-yl)-ethoxy]-3-ethyl-benzyl}-amino)-methyl]-cyclohexanecarboxylic acid]
4640	O=C1CCC(=O)N1CCOc1ccc(CN(C[C@H]2CC[C@H](C(=O)O)CC2)C2CCc3cc(F)c(Cl)cc32)cc1F (stereo partly drawn) [Example 97, trans-4-[((6-Chloro-5-fluoro-indan-1-yl)-{4-[2-(2,5-dioxo-pyrrolidin-1-yl)-ethoxy]-3-fluoro-benzyl}-amino)-methyl]-cyclohexanecarboxylic acid]
155	COc1cc(CN(C[C@H]2CC[C@H](C(=O)O)CC2)C2CCc3cc(Cl)c(F)cc32)ccc1OCCN1C(=O)CCC1=O (stereo partly drawn) [Example 98, trans-4-[((5-Chloro-6-fluoro-indan-1-yl)-{4-[2-(2,5-dioxo-pyrrolidin-1-yl)-ethoxy]-3-methoxy-benzyl}-amino)-methyl]-cyclohexanecarboxylic acid]
154	COc1cc(CN(C[C@@H]2CC[C@H](C(=O)O)C2)[C@@H](C)c2ccc(Cl)cc2)ccc1OCCN1C(=O)CCC1=O [Example 102, (1S,3R)-3-[([(S)-1-(4-Chloro-phenyl)-ethyl]-{4-[2-(2,5-dioxo-pyrrolidin-1-yl)-ethoxy]-3-methoxy-benzyl}-amino)-methyl]-cyclopentanecarboxylic acid]
260	COc1cc(CN(C[C@H]2CC[C@@H](C(=O)O)C2)[C@H](C)c2ccc3c(c2)CCO3)ccc1OCCN1C(=O)CCC1=O [Example 103, (1R,3S)-3-[([(R)-1-(2,3-Dihydro-benzofuran-5-yl)-ethyl]-{4-[2-(2,5-dioxo-pyrrolidin-1-yl)-ethoxy]-3-methoxy-benzyl}-amino)-methyl]-cyclopentanecarboxylic acid]
15	COc1cc(CN(C[C@@H]2CC[C@@H](C(=O)O)C2)[C@H](C)c2ccc3c(c2)CCO3)ccc1OCCN1C(=O)CCC1=O [Example 104, (1R,3R)-3-[([(R)-1-(2,3-Dihydro-benzofuran-5-yl)-ethyl]-{4-[2-(2,5-dioxo-pyrrolidin-1-yl)-ethoxy]-3-methoxy-benzyl}-amino)-methyl]-cyclopentanecarboxylic acid]
53	COc1cc(CN(C[C@@H]2CC[C@@H](C(=O)O)C2)[C@@H](C)c2ccc3c(c2)CCO3)ccc1OCCN1C(=O)CCC1=O [Example 105, (1R,3R)-3-[([(S)-1-(2,3-Dihydro-benzofuran-5-yl)-ethyl]-{4-[2-(2,5-dioxo-pyrrolidin-1-yl)-ethoxy]-3-methoxy-benzyl}-amino)-methyl]-cyclopentanecarboxylic acid]
144	COc1cc(CN(C[C@@H]2CC[C@H](C(=O)O)C2)[C@@H](C)c2ccc3c(c2)CCO3)ccc1OCCN1C(=O)CCC1=O [Example 106, (1S,3R)-3-[([(S)-1-(2,3-Dihydro-benzofuran-5-yl)-ethyl]-{4-[2-(2,5-dioxo-pyrrolidin-1-yl)-ethoxy]-3-methoxy-benzyl}-amino)-methyl]-cyclopentanecarboxylic acid]
5130	COc1cc(CN(C[C@H]2CC[C@@H](C(=O)O)C2)[C@@H](C)c2ccc3c(c2)CCO3)ccc1OCCN1C(=O)CCC1=O [Example 107, (1R,3S)-3-[([(S)-1-(2,3-Dihydro-benzofuran-5-yl)-ethyl]-{4-[2-(2,5-dioxo-pyrrolidin-1-yl)-ethoxy]-3-methoxy-benzyl}-amino)-methyl]-cyclopentanecarboxylic acid]
190	COc1cc(CN(C[C@@H]2CC[C@H](C(=O)O)C2)[C@H](C)c2ccc3c(c2)CCO3)ccc1OCCN1C(=O)CCC1=O [Example 108, (1S,3R)-3-[([(R)-1-(2,3-Dihydro-benzofuran-5-yl)-ethyl]-{4-[2-(2,5-dioxo-pyrrolidin-1-yl)-ethoxy]-3-methoxy-benzyl}-amino)-methyl]-cyclopentanecarboxylic acid]
73	COc1cc(CN(C[C@H]2CC[C@H](C(=O)O)C2)[C@H](C)c2ccc3c(c2)CCO3)ccc1OCCN1C(=O)CCC1=O [Example 109, (1S,3S)-3-[([(R)-1-(2,3-Dihydro-benzofuran-5-yl)-ethyl]-{4-[2-(2,5-dioxo-pyrrolidin-1-yl)-ethoxy]-3-methoxy-benzyl}-amino)-methyl]-cyclopentanecarboxylic acid]
525	COc1cc(CN(C[C@H]2CC[C@H](C(=O)O)C2)[C@@H](C)c2ccc3c(c2)CCO3)ccc1OCCN1C(=O)CCC1=O [Example 110, (1S,3S)-3-[([(S)-1-(2,3-Dihydro-benzofuran-5-yl)-ethyl]-{4-[2-(2,5-dioxo-pyrrolidin-1-yl)-ethoxy]-3-methoxy-benzyl}-amino)-methyl]-cyclopentanecarboxylic acid]
3200	COc1cc(CN(CC2(C(=O)O)CC2)C2CCc3cc(Cl)ccc32)ccc1OCCN1C(=O)CCC1=O (stereo not shown) [Example 119, 1-[((5-Chloro-indan-1-yl)-{4-[2-(2,5-dioxo-pyrrolidin-1-yl)-ethoxy]-3-methoxy-benzyl}-amino)-methyl]-cyclopropanecarboxylic acid]
